Laboratory results published in ChEMBL document CHEMBL5029197, “Synthesis and Metabolism of BTN3A1 Ligands: Studies on Diene Modifications to the Phosphoantigen Scaffold” (ACS Med Chem Lett, 2022).
Active and inactive are the calls of the source. No cut-off for these calls is given here.

Key:
Vgamma9Vdelta2-T cell [1] = test: (§1) Induction of cell proliferation in human Vgamma9Vdelta2-T cells stimulated with human PBMC for 3 days followed by compound washout and supplemented with IL2 every 3 days for 11 days by flow cytometry analysis; type: functional, cell-based; details: time 3.0 day
Vgamma9Vdelta2-T cell [2] = test: (§2) Induction of IFN-gamma production in human Vgamma9Vdelta2-T cells incubated for 60 mins with compound-loaded K562 cells followed by compound washout and measured after 20 hrs by ELISA; type: functional, cell-based
Vgamma9Vdelta2-T cell [3] = test: (§3) Induction of IFN-gamma production in human Vgamma9Vdelta2-T cells incubated for 4 mins with compound-loaded K562 cells followed by compound washout and measured after 20 hrs by ELISA; type: functional, cell-based
[4] = Drug metabolism in human K562 cells assessed as monoacid methyl ester metabolite formation at 100 uM incubated for 1 hr by LC-MS analysis; type: ADME, cell-based; details: k562, 1 h
Vgamma9Vdelta2-T cell [5] = test: (§4) Induction of IFN-gamma production in human Vgamma9Vdelta2-T cells incubated for 15 mins with compound-loaded K562 cells followed by compound washout and measured after 20 hrs by ELISA; type: functional, cell-based
[6] = Stability of compound in human plasma assessed as parent compound remaining at 100 uM measured after 24 hrs by LC-MS analysis; type: ADME, cell-free; details: for remaining at 24 h, 100 µM: read-out: Stability; for Stability: 24 h, 100 µM
Vgamma9Vdelta2-T cell [7] = test: (§5) Induction of IFN-gamma production in human Vgamma9Vdelta2-T cells incubated for 240 mins with compound-loaded K562 cells followed by compound washout and measured after 20 hrs by ELISA; type: functional, cell-based
[8] = Stability of compound in human plasma assessed as parent compound remaining at 100 uM measured after 2 hrs by LC-MS analysis; type: ADME, cell-free; details: for remaining at 2 h, 100 µM: read-out: Stability; for Stability: 2 h, 100 µM
K562 = test: Cytotoxicity against human K562 cells assessed as reduction in cell viability measured after 72 hrs by colorimetric assay; type: cell-based; details: k562, 72 h
[9] = as §1; type: functional, cell-based
[10] = molecular target: Butyrophilin subfamily 3 member A1 (Homo sapiens) (UniProt O00481); test: Displacement of GDP-BODIPY probe from BTN3A1 full intracellular domain (unknown origin) at […] measured after 60 mins by fluorescence polarization assay
[11] = Drug metabolism in human K562 cells assessed as free phosphonic diacid metabolite formation at 100 uM incubated for 1 hr by LC-MS analysis; type: ADME, cell-based; details: k562, 1 h
[12] = as §2; type: functional, cell-based; details: Vgamma9Vdelta2 T cell
[13] = as §3; type: functional, cell-based; details: Vgamma9Vdelta2 T cell
[14] = as §4; type: functional, cell-based; details: Vgamma9Vdelta2 T cell
[15] = as §5; type: functional, cell-based; details: Vgamma9Vdelta2 T cell

Sequence of Butyrophilin subfamily 3 member A1 (Homo sapiens) (O00481 30-513 limits assumed): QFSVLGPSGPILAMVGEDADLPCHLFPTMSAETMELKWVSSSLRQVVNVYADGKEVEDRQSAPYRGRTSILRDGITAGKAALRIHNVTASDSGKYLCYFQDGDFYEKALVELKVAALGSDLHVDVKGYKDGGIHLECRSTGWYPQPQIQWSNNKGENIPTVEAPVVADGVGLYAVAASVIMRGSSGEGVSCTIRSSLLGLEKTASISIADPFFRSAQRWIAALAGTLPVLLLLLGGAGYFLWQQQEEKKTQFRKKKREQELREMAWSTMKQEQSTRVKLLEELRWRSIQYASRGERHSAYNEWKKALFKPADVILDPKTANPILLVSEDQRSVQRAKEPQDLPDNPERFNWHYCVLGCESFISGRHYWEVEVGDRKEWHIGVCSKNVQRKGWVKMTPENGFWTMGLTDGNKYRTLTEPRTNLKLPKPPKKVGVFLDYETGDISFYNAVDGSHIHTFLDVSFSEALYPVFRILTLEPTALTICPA

Row | EC50 [12] [µM] | EC50 [13] [µM] | EC50 [14] [µM] | EC50 [15] [µM] | Stability [6] | Stability [8] | SMILES | Activity (Vgamma9Vdelta2-T cell [1]) | Activity (Vgamma9Vdelta2-T cell [2]) | Activity (Vgamma9Vdelta2-T cell [3]) | Drug metabolism [4] | Activity (Vgamma9Vdelta2-T cell [5]) | remaining at 24 h, 100 µM [6] [%] | Activity (Vgamma9Vdelta2-T cell [7]) | remaining at 2 h, 100 µM [8] [%] | Activity (K562) [µM] | EC50 [9] [µM] | Activity [10] | Drug metabolism [11]
1 | – | – | – | – | – | – | CC(C)=C/C=C/P(=O)(Oc1ccccc1)Oc1ccccc1 | inactive | inactive | inactive | Metabolite_Notdetected | inactive | 73 | inactive | 89 | > 100 | – | – | –
2 | – | – | – | – | – | – | C/C(=C\C=C\P(=O)(O)O)CO | – | – | – | – | – | – | – | – | > 100 | 15 | Active | –
3 | 52 | > 100 | > 100 | 18 | Unstable | – | CC(C)=C/C=C/P(=O)(OCOC(=O)C(C)(C)C)OCOC(=O)C(C)(C)C | – | – | – | – | – | – | – | 6 | > 100 | 0.29 | – | Metabolite_Detected
4 | – | – | – | – | – | – | CC(C)=C/C=C/P(=O)([O-])[O-].[Na+].[Na+] | – | – | – | – | – | – | – | – | > 100 | > 100 | Active | –
5 | 0.03 | – | 0.043 | 0.024 | Unstable | Unstable | C/C(=C\CCP(=O)(OCOC(=O)C(C)(C)C)OCOC(=O)C(C)(C)C)CO | – | – | – | – | – | – | – | – | > 100 | – | – | –
6 | 37 | > 100 | 98 | 11 | – | – | COP(=O)(/C=C/C=C(C)C)OCOC(=O)C(C)(C)C (configuration not stated) | – | – | – | Metabolite_Detected | – | 4 | – | 62 | 20 | 0.13 | – | –
7 | > 100 | > 100 | > 100 | 38 | Unstable | Unstable | CC(=O)OC/C(C)=C/C=C/P(=O)(OCOC(=O)C(C)(C)C)OCOC(=O)C(C)(C)C | – | – | – | – | – | – | – | – | > 100 | 60 | – | Metabolite_Detected
8 | – | – | – | – | – | – | C/C(=C\CCP(=O)(O)O)CO | – | – | – | – | – | – | – | – | – | – | inactive | –

Row | SMILES | EC50 [12] [µM] | EC50 [13] [µM] | EC50 [14] [µM] | EC50 [15] [µM] | Stability [6] | Stability [8] | Activity (Vgamma9Vdelta2-T cell [1]) | Activity (Vgamma9Vdelta2-T cell [2]) | Activity (Vgamma9Vdelta2-T cell [3]) | Drug metabolism [4] | Activity (Vgamma9Vdelta2-T cell [5]) | remaining at 24 h, 100 µM [6] [%] | Activity (Vgamma9Vdelta2-T cell [7]) | remaining at 2 h, 100 µM [8] [%] | Activity (K562) [µM] | EC50 [9] [µM] | Activity [10] | Drug metabolism [11]
9 | CC(C)=C/C=C/P(=O)(OCOC(=O)C(C)(C)C)Oc1ccccc1 (configuration not stated) | 29 | > 100 | > 100 | 9.1 | – | – | – | – | – | – | – | 16 | – | 48 | 100 | 0.75 | – | Metabolite_Detected
10 | COC(=O)[C@H](C)NP(=O)(/C=C/C=C(C)C)Oc1ccccc1 (some centres not stated) | > 100 | > 100 | > 100 | 75 | – | – | – | – | – | – | – | 63 | – | 69 | > 100 | 11 | – | Metabolite_Detected
